Reference: paper PMC12396409, “Screening and hit evaluation of a microbial metabolite library against the pathogenic Plasmodium falciparum and Toxoplasma gondii parasites” (International Journal for Parasitology: Drugs and Drug …, 2025)
Where two headings read alike, the source gives them in different places. Where a SMILES comes first, the peptide text is derived from it. Bridges are numbered along the chain shown (N, C = ends). [ ]: non-standard residue; d: D form. The star is where a group is joined. Octatrienoyl(2E,4E,6E) = C/C=C/C=C/C=C/C(=O)*; Pro(4R-Me) = C[C@H]1CN[C@H](C(=O)O)C1; NMeA = CN[C@@H](C)C(=O)O

What was measured:
[1] = system: P. falciparum 3D7 parasites; experiment: P. falciparum growth inhibition assay, 1-cycle (72 h treatment), SYBR DNA staining (library screen at 2 μg/mL and dose-response); assay type: cell-based, Plasmodium falciparum; conditions: for activity at 2 µg/mL: Plasmodium falciparum, 3D7
[2] = system: P. falciparum 3D7 parasites; experiment: P. falciparum growth inhibition assay, 2-cycle (120 h treatment), delayed-death screen and dose-response; assay type: cell-based, Plasmodium falciparum; conditions: for activity at 2 µg/mL: Plasmodium falciparum, 3D7
[3] = system: T. gondii RH strain (RH-Tub-eYFP) tachyzoites; experiment: microbe, parasite or virus in culture; assay type: cell-based, Toxoplasma gondii
[4] = P. falciparum, 72 h, screen at 2 μg/mL, replicate 1
[5] = P. falciparum, 72 h, screen at 2 μg/mL, replicate 2
[6] = P. falciparum, 120 h, screen at 2 μg/mL, replicate 1
[7] = P. falciparum, 120 h, screen at 2 μg/mL, replicate 2
[8] = T. gondii, 72 h, screen at 2 μg/mL, replicate 1
[9] = T. gondii, 72 h, screen at 2 μg/mL, replicate 2
[10] = library screen at 2 μg/mL, 72 h, % growth, replicate 1
[11] = library screen at 2 μg/mL, 72 h, % growth, replicate 2
[12] = library screen at 2 μg/mL, 120 h, % growth, replicate 1
[13] = library screen at 2 μg/mL, 120 h, % growth, replicate 2
[14] = P. falciparum, 72 h, screen at 2 μg/mL, replicate 1, read-out: Pf_72h_%Growth_Rep1
[15] = P. falciparum, 72 h, screen at 2 μg/mL, replicate 2, read-out: Pf_72h_%Growth_Rep2
[16] = P. falciparum, 120 h, screen at 2 μg/mL, replicate 1, read-out: Pf_120h_%Growth_Rep1
[17] = P. falciparum, 120 h, screen at 2 μg/mL, replicate 2, read-out: Pf_120h_%Growth_Rep2

Compound: CCC(=O)N[C@H](COC(C)=O)[C@H](O)c1ccc([N+](=O)[O-])cc1 [Corynecin V]
- Pf_72h_%Growth_Rep1 [1, 4]: 87.31%
- Pf_72h_%Growth_Rep2 [1, 5]: 90.66%
- Pf_120h_%Growth_Rep1 [2, 6]: 81.24%
- Pf_120h_%Growth_Rep2 [2, 7]: 97.66%
- Tg_72h_%Growth_Rep1 [3, 8]: 157.61%
- Tg_72h_%Growth_Rep2 [3, 9]: 102.11%

Compound: COc1cc(-c2ccccn2)nc(/C=N/O)c1SC [Collismycin]
- Pf_72h_%Growth_Rep1 [1, 4]: 3.71%
- Pf_72h_%Growth_Rep2 [1, 5]: 8.55%
- Pf_120h_%Growth_Rep1 [2, 6]: -4.02%
- Pf_120h_%Growth_Rep2 [2, 7]: 3.02%
- Tg_72h_%Growth_Rep1 [3, 8]: -1.50%
- Tg_72h_%Growth_Rep2 [3, 9]: 0.69%

Compound: C/C=C/C=C/C=C/C(=O)N[C@@H](Cc1ccccc1)C(=O)N[C@H]1COC(=O)[C@@H]2C[C@@H](C)CN2C(=O)[C@H](C)NC(=O)[C@H](C)N(C)C(=O)[C@@H]2CCCN2C1=O [A 54556A] ({Octatrienoyl(2E,4E,6E)}-FSP[NMeA]A[Pro(4R-Me)]; ester 2-C)
- Pf_72h_%Growth_Rep1 [1, 10]: 73.00%
- Pf_72h_%Growth_Rep2 [1, 11]: 56.16%
- Pf_120h_%Growth_Rep1 [2, 12]: 58.56%
- Pf_120h_%Growth_Rep2 [2, 13]: 46.42%
- Tg_72h_%Growth_Rep1 [3, 10]: 149.51%
- Tg_72h_%Growth_Rep2 [3, 11]: 92.23%

Compound: Spirolaxine
- Pf_72h_%Growth_Rep1 ([1]; P. falciparum, 72 h, parasite screen 2 μg/mL, % growth, replicate 1): 54.30%
- Pf_72h_%Growth_Rep2 ([1]; P. falciparum, 72 h, parasite screen 2 μg/mL, % growth, replicate 2): 41.64%
- Pf_120h_%Growth_Rep1 ([2]; P. falciparum, 120 h, parasite screen 2 μg/mL, % growth, replicate 1): 32.74%
- Pf_120h_%Growth_Rep2 ([2]; P. falciparum, 120 h, parasite screen 2 μg/mL, % growth, replicate 2): 18.31%
- Tg_72h_%Growth_Rep1 ([3]; T. gondii, 72 h, parasite screen 2 μg/mL, % growth, replicate 1): 20.75%
- Tg_72h_%Growth_Rep2 ([3]; T. gondii, 72 h, parasite screen 2 μg/mL, % growth, replicate 2): 22.73%

Compound: CN1C(=O)c2ccccc2NC(=O)[C@@H]1Cc1ccccc1 [Cyclopeptine]
- Pf_72h_%Growth_Rep1 [1, 4]: 53.40%
- Pf_72h_%Growth_Rep2 [1, 5]: 63.93%
- Pf_120h_%Growth_Rep1 [2, 6]: 15.88%
- Pf_120h_%Growth_Rep2 [2, 7]: 61.17%
- Tg_72h_%Growth_Rep1 [3, 8]: 139.33%
- Tg_72h_%Growth_Rep2 [3, 9]: 93.22%

Compound: CO[C@H]1C[C@H](O[C@H]2[C@H](C)O[C@@H](O[C@@H]3/C(C)=C/C[C@@H]4C[C@@H](C[C@]5(C=C[C@H](C)[C@@H](C6CCCCC6)O5)O4)OC(=O)C4=C[C@H](C)[C@@H](O)[C@H]5OC/C(=C\C=C[C@@H]3C)[C@@]45O)C[C@@H]2OC)O[C@@H](C)[C@@H]1O [Doramectin, delta2-]
- Pf_72h_%Growth_Rep1 [1, 10]: 3.28%
- Pf_72h_%Growth_Rep2 [1, 11]: 1.57%
- Pf_120h_%Growth_Rep1 [2, 12]: 4.07%
- Pf_120h_%Growth_Rep2 [2, 13]: 0.97%
- Tg_72h_%Growth_Rep1 [3, 10]: 85.18%
- Tg_72h_%Growth_Rep2 [3, 11]: 104.19%

Compound: CCCC1CC(C(=O)NC(C(C)O)C2OC(SC)C(O)C(O)C2O)N(C)C1 (stereo not drawn) [BIA-L1457]
- Pf_72h_%Growth_Rep1 ([1]; P. falciparum 3D7, 72 h, library screen at 2 μg/mL, % growth, replicate 1): 49.27%
- Pf_72h_%Growth_Rep2 ([1]; P. falciparum 3D7, 72 h, library screen at 2 μg/mL, % growth, replicate 2): 59.50%
- Pf_120h_%Growth_Rep1 ([2]; P. falciparum 3D7, 120 h, library screen at 2 μg/mL, % growth, replicate 1): 9.59%
- Pf_120h_%Growth_Rep2 ([2]; P. falciparum 3D7, 120 h, library screen at 2 μg/mL, % growth, replicate 2): 18.68%
- Tg_72h_%Growth_Rep1 ([3]; T. gondii RH, 72 h, library screen at 2 μg/mL, % growth, replicate 1): 26.67%
- Tg_72h_%Growth_Rep2 ([3]; T. gondii RH, 72 h, library screen at 2 μg/mL, % growth, replicate 2): 42.80%

Compound: CC1CCCCCC(=O)c2c(O)cc(O)cc2CC(=O)O1 (stereo not drawn) [Curvularin]
- activity at 2 µg/mL [1, 14]: 94%
- activity at 2 µg/mL [1, 15]: 47.8%
- activity at 2 µg/mL [2, 16]: 93.3%
- activity at 2 µg/mL [2, 17]: 122%
- percent parasite growth at 2 µg/mL ([3]; Toxoplasma gondii, 72 h, T. gondii, 72 h, screen at 2 μg/mL, replicate 1; read-out: Tg_72h_%Growth_Rep1): 143%
- percent parasite growth at 2 µg/mL ([3]; Toxoplasma gondii, 72 h, T. gondii, 72 h, screen at 2 μg/mL, replicate 2; read-out: Tg_72h_%Growth_Rep2): 80.4%

Compound: CC[C@H](C)[C@@H](OC(C)=O)[C@@H](C)C1=CC(=O)C2=C(O[C@]3(C)CC[C@H]4O[C@@H](C(C)(C)O)CC[C@]4(C)[C@H]3[C@@H]2O)C1=O [Cochlioquinone A]
- activity at 2 µg/mL [1, 14]: 79.2%
- activity at 2 µg/mL [1, 15]: 80.1%
- activity at 2 µg/mL [2, 16]: 75.8%
- activity at 2 µg/mL [2, 17]: 74.1%
- percent parasite growth at 2 µg/mL ([3]; Toxoplasma gondii; T. gondii, 72 h, screen at 2 μg/mL, replicate 1; read-out: Tg_72h_%Growth_Rep1): 161%
- percent parasite growth at 2 µg/mL ([3]; Toxoplasma gondii; T. gondii, 72 h, screen at 2 μg/mL, replicate 2; read-out: Tg_72h_%Growth_Rep2): 90.2%

Compound: CC(C)=CCCC(C)C1CCC2(C)CC3C(C(=O)CC3(C)O)C(C=O)=CCC12 (stereo not drawn) [BIA-O1199]
- Pf_72h_%Growth_Rep1 ([1]; P. falciparum 3D7, 72 h, parasite screen at 2 μg/mL, % growth, replicate 1): -0.50%
- Pf_72h_%Growth_Rep2 ([1]; P. falciparum 3D7, 72 h, parasite screen at 2 μg/mL, % growth, replicate 2): -3.29%
- Pf_120h_%Growth_Rep1 ([2]; P. falciparum 3D7, 120 h, parasite screen at 2 μg/mL, % growth, replicate 1): 3.94%
- Pf_120h_%Growth_Rep2 ([2]; P. falciparum 3D7, 120 h, parasite screen at 2 μg/mL, % growth, replicate 2): 138.56%
- Tg_72h_%Growth_Rep1 ([3]; T. gondii, 72 h, parasite screen at 2 μg/mL, % growth, replicate 1): 7.63%
- Tg_72h_%Growth_Rep2 ([3]; T. gondii, 72 h, parasite screen at 2 μg/mL, % growth, replicate 2): 89.80%
